Assay [1] deals with T1, human (h) ERα (Homo sapiens, UniProt P03372).
T1 sequence (P03372 1-595): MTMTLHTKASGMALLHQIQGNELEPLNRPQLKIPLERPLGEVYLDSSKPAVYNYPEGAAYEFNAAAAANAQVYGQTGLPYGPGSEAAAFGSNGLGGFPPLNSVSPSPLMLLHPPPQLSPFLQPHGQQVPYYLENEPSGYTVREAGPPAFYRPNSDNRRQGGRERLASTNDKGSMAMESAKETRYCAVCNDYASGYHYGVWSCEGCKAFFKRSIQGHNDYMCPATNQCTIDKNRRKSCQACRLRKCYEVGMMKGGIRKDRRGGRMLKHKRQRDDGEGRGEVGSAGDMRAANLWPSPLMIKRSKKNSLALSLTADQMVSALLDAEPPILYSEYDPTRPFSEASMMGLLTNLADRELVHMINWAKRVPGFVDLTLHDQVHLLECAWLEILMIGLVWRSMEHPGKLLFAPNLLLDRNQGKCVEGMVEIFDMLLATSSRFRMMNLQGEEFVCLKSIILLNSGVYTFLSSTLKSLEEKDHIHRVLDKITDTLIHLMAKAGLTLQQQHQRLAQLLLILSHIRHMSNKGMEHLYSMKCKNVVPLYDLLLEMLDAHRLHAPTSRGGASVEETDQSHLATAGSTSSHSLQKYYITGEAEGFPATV
The settings on record: test for false positivity.

Assay [2] addresses T1, human (h) ERα. Kind of assay: hERα-HeLa-9903 transactivation assay, agonist setup. In kind it is cell-based. Details: host or cells: hERα-HeLa-9903 (HeLa derived). The settings on record: for higher ERα RTA than vehicle control: vs 0.1% DMSO.

As to `O=C(Nc1ccc(Cl)cc1)Nc1ccc(Cl)c(Cl)c1` [Triclocarban, 1-(4-Chlorophenyl)-3-(3,4-dichlorophenyl) urea], on human (h) ERα [1], the “estrogenic effect in presence of ER antagonist 10 μM hydroxytamoxifen” value is given as “blocked all”. Moreover, at human (h) ERα [2] (1 μM), the “higher ERα RTA than vehicle control” value amounted to 53%. The “higher ERα RTA than vehicle control” value at human (h) ERα [2] (5 μM) came to 58%. In addition, on human (h) ERα [2] (hERα-HeLa-9903), the “ERα agonist activity, call” value is “Agonist” and the “concentration with ERα agonist activity” value was 1 to 5 µM.
